According to patent US20100298141A1, “SUBSTITUTED PYRIDINE N-OXIDE HERBICIDES” (E. I. DU PONT DE NEMOURS AND COMPANY, priority 2007, published 2010):

Key:
pigweed = assay: Test C pre-/postemergence test; format: in vivo, Amaranthus retroflexus; conditions: Preemergence
Outline: (§1)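 Test chemicals were formulated with surfactant in a non-phytotoxic solvent and sprayed both on freshly planted seeds (preemergence) and on 1- to 4-leaf plants of 2–18 cm (postemergence). Flooded-paddy pots received compound directly into 3 cm of standing water, maintained for the test.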

barnyardgrass = assay: Test A pre-/postemergence greenhouse test; format: in vivo, Echinochloa crus-galli; conditions: for Barnyardgrass plant response rating: 0 to 100 scale
Outline: (§2)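 Herbicidal effect is a visual injury score given about ten days post-treatment by comparison with untreated controls. Preemergence plots received a directed spray onto sown loam–sand soil; postemergence plants, at the one- to two-leaf stage and 2–10 cm tall, were sprayed at the same time.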

umbrella sedge = assay: Test C flooded paddy test; format: in vivo, Cyperus difformis; conditions: Flood
Outline: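 Greenhouse pots flooded to 3 cm above soil at time of treatment received compound via the water, which stayed at that level.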

[1] = system: common (oilseed) sunflower; assay: Test C pre-/postemergence test; format: in vivo, Helianthus annuus; conditions: Preemergence
Outline: as §1

yellow nutsedge = assay: Test C pre-/postemergence test; format: in vivo, Cyperus esculentus; conditions: Preemergence
Outline: as §1

kochia = assay: Test C pre-/postemergence test; format: in vivo, Kochia scoparia; conditions: Preemergence
Outline: as §1

green foxtail = assay: Test C pre-/postemergence test; format: in vivo, Setaria viridis; conditions: Preemergence
Outline: as §1

corn = assay: Test C pre-/postemergence test; format: in vivo, Zea mays
Outline: as §1

blackgrass = assay: Test C pre-/postemergence test; format: in vivo, Alopecurus myosuroides
Outline: as §1

cocklebur = assay: Test C pre-/postemergence test; format: in vivo, Xanthium strumarium
Outline: as §1

morningglory [2] = assay: Test A pre-/postemergence greenhouse test; format: in vivo, Ipomoea spp.; conditions: for Morningglory plant response rating: 0 to 100 scale
Outline: as §2

woolly cupgrass = assay: Test C pre-/postemergence test; format: in vivo, Eriochloa villosa; conditions: Preemergence
Outline: as §1

morningglory [3] = assay: Test C pre-/postemergence test; format: in vivo, Ipomoea coccinea; conditions: Preemergence
Outline: as §1

soybean = assay: Test C pre-/postemergence test; format: in vivo, Glycine max; conditions: Preemergence
Outline: as §1

wheat = assay: Test C pre-/postemergence test; format: in vivo, Triticum aestivum; conditions: Preemergence
Outline: as §1

crabgrass = assay: Test C pre-/postemergence test; format: in vivo, Digitaria sanguinalis; conditions: Preemergence
Outline: as §1

Italian ryegrass = assay: Test C pre-/postemergence test; format: in vivo, Lolium multiflorum; conditions: Preemergence
Outline: as §1

[4] = 31 g ai/ha, scale 0 to 100 (0 no effect, 100 complete control)
[5] = Postemergence, 125 g ai/ha, 0 is no effect, 100 is complete control
[6] = Postemergence, 500 g ai/ha, 0 is no effect, 100 is complete control
[7] = Preemergence, 125 g ai/ha, 0 no effect, 100 complete control
[8] = Preemergence, 500 g ai/ha, 0 to 100 scale where 0 is no effect and 100 is complete control
[9] = 62 g ai/ha, Preemergence, scale 0 to 100
[10] = Preemergence, 31 g ai/ha, scale 0 to 100 (0 no effect, 100 complete control)
[11] = preemergence, 125 g ai/ha, scale 0 (no effect) to 100 (complete control)

In the case of `Cc1cc[n+]([O-])c(S(=O)(=O)Cc2c(C(F)(F)F)nn(C)c2Cl)c1` [Compound 19], the “Pigweed plant response rating” value (pigweed; 62 g ai/ha, scale 0 to 100) was 100, the “Plant response rating, Pigweed” value (pigweed; [4]) was 80 and the “Barnyardgrass plant response rating” value (barnyardgrass; [5]) was 40. The “Barnyardgrass plant response rating” value (barnyardgrass; [6]) was 80, the “Barnyardgrass plant response rating” value (barnyardgrass; [7]) was 80 and the “Plant response rating, Barnyardgrass” value (barnyardgrass; [8]) was 100. The “Plant response rating, Sedge, Umbrella” value (umbrella sedge; [4]) was 0, the “Plant response rating, Sedge, Umbrella” value (umbrella sedge; 62 g ai/ha, scale 0 to 100, 0 no effect, 100 complete control, 13 to 15 days) was 0 and the “Plant response rating, Sedge, Umbrella” value (umbrella sedge; 125 g ai/ha, scale 0 to 100, 0 no effect, 100 complete control, 13 to 15 days) was 70. For the same molecule, the “Plant response rating, Sedge, Umbrella” value (umbrella sedge; 250 g ai/ha, scale 0 to 100, 0 no effect, 100 complete control, 13 to 15 days) was 95, the “Sunflower plant response rating” value ([1]; 62 g ai/ha, scale 0 to 100) was 0 and the “Plant response rating, Sunflower” value [1, 4] was 0. For the same molecule, the “Nutsedge, Yellow plant response rating” value (yellow nutsedge; 62 g ai/ha, scale 0 to 100) was 70, the “Plant response rating, Nutsedge, Yellow” value (yellow nutsedge; [4]) was 40 and the “Kochia plant response rating” value (kochia; 62 g ai/ha, scale 0 to 100) was 100. For the same molecule, the “Plant response rating, Kochia” value (kochia; [4]) was 0, the “Foxtail, Green plant response rating” value (green foxtail; 62 g ai/ha, scale 0 to 100) was 100 and the “Plant response rating, Foxtail, Green” value (green foxtail; [4]) was 98. The “Plant response rating (0 to 100), Foxtail, Green” value (green foxtail; 250 g ai/ha) was 100, the “Corn plant response rating” value (corn; [9]) was 40 and the “Plant response rating, Corn” value (corn; [10]) was 0. The “Plant response rating (0 to 100), Corn” value (corn; Preemergence, 250 g ai/ha) was 70, the “Corn plant response rating” value (corn; [11]) was 40 and the “Blackgrass plant response rating” value (blackgrass; [9]) was 0. The “Plant response rating, Blackgrass” value (blackgrass; [10]) was 0, the “Plant response rating (0 to 100), Blackgrass” value (blackgrass; Preemergence, 250 g ai/ha) was 100 and the “Blackgrass plant response rating” value (blackgrass; [11]) was 0. For the same molecule, the “Cocklebur plant response rating” value (cocklebur; [9]) was 0, the “Plant response rating, Cocklebur” value (cocklebur; [10]) was 0 and the “Plant response rating (0 to 100), Cocklebur” value (cocklebur; Preemergence, 250 g ai/ha) was 30. For the same molecule, the “Cocklebur plant response rating” value (cocklebur; [11]) was 0, the “Morningglory plant response rating” value (morningglory [2]; [5]) was 20 and the “Morningglory plant response rating” value (morningglory [2]; [6]) was 30. For the same molecule, the “Morningglory plant response rating” value (morningglory [2]; [7]) was 60, the “Plant response rating, Morningglory” value (morningglory [2]; [8]) was 80 and the “Cupgrass, Woolly plant response rating” value (woolly cupgrass; 62 g ai/ha, scale 0 to 100) was 100. The “Plant response rating, Cupgrass, Woolly” value (woolly cupgrass; [4]) was 0, the “Plant response rating (0 to 100), Cupgrass, Woolly” value (woolly cupgrass; 250 g ai/ha) was 100 and the “Morningglory plant response rating” value (morningglory [3]; 62 g ai/ha, scale 0 to 100) was 60. The “Plant response rating, Morningglory” value (morningglory [3]; [4]) was 0, the “Soybean plant response rating” value (soybean; 62 g ai/ha, scale 0 to 100) was 0 and the “Plant response rating, Soybean” value (soybean; [4]) was 0. For the same molecule, the “Wheat plant response rating” value (wheat; 62 g ai/ha, scale 0 to 100) was 0, the “Plant response rating, Wheat” value (wheat; [4]) was 0 and the “Crabgrass, Large plant response rating” value (crabgrass; 62 g ai/ha, scale 0 to 100) was 100. For the same molecule, the “Plant response rating, Crabgrass, Large” value (crabgrass; [4]) was 98, the “Plant response rating (0 to 100), Crabgrass, Large” value (crabgrass; 250 g ai/ha) was 100 and the “Ryegrass, Italian plant response rating” value (Italian ryegrass; 62 g ai/ha, scale 0 to 100) was 30. The “Plant response rating, Ryegrass, Italian” value (Italian ryegrass; [4]) was 0.
